# From ChEMBL document CHEMBL1949573, “Isoform-selective thiazolo[5,4-b]pyridine S1P1 agonists possessing acyclic amino carboxylate head-groups” (Bioorg Med Chem Lett, 2012)
# pEC50: −log10 of the molar value. Calls of active or inactive are those of the source. No cut-off for these calls is given here.
# Experiments:
# [1] = target: T1, Sphingosine 1-phosphate receptor 1 (Homo sapiens, UniProt P21453); experiment: Agonist activity at eGFP-tagged human S1P1 receptor expressed in U2OS cells assessed as receptor internalization after 1 hr by Hoechst dye-based microscopic analysis; type: functional, cell-based
# T1 sequence (P21453 whole entry): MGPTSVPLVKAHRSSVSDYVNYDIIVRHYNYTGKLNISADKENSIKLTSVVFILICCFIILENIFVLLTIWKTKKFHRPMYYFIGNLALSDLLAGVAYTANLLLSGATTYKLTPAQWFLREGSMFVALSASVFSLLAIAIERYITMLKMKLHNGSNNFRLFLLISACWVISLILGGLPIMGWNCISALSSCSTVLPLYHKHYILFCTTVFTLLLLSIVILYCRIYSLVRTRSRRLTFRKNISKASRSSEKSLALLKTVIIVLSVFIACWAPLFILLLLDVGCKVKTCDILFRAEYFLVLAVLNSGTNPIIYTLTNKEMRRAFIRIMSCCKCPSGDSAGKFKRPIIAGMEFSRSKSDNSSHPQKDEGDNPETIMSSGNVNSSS
# [2] = target: T2, Sphingosine 1-phosphate receptor 3 (Homo sapiens, UniProt Q99500); experiment: Agonist activity at human S1P3 receptor expressed in CHO cells coexpressing chimeric Gq/i5 G-protein assessed as Ca2+ release by FLIPR assay; type: functional, cell-based
# T2 sequence (Q99500 whole entry): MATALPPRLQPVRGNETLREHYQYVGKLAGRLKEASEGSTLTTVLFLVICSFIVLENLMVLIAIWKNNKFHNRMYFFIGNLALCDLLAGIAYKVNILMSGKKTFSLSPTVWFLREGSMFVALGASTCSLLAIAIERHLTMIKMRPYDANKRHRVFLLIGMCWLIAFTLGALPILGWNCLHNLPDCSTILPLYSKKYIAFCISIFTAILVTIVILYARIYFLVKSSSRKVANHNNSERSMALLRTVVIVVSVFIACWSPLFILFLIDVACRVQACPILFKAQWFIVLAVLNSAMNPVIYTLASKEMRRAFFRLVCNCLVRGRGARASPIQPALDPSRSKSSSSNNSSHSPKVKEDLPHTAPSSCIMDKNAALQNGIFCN
# [3] = target: T1, Sphingosine 1-phosphate receptor 1; experiment: Agonist activity at eGFP-tagged human S1P1 receptor expressed in U2OS cells assessed as receptor internalization after 1 hr by Hoechst dye-based microscopic analysis relative to 1 uM 1-(4-(6-benzylbenzofuran-2-yl)-3-fluorobenzyl)azetidine-3-carboxylic acid; type: functional, cell-based
# [4] = target: T2, Sphingosine 1-phosphate receptor 3; experiment: Agonist activity at human S1P3 receptor expressed in CHO cells coexpressing chimeric Gq/i5 G-protein assessed as Ca2+ release by FLIPR assay relative to 0.2 uM S1P; type: functional, cell-based
# Rattus norvegicus [5] = experiment: Immunomodulatory activity in Lewis rat assessed as peripheral lymphocyte reduction at 1 mg/kg, po after 24 hrs; type: functional; parameters: scale not given: the % may be the effect or the level left
# Plasma [6] = experiment: Plasma concentration in Lewis rat at 1 mg/kg, po; type: ADME, organism-based; parameters: dose 1 mg/kg, route oral; conditions: in vivo
# [7] = Clearance in Sprague-Dawley rat at 1 mg/kg, iv and 3 mg/kg, po; type: ADME, organism-based; conditions: in vivo
# rat MDR1 [8] = experiment: Efflux ratio of permeability across pig LLC-PK1 cells expressing rat MDR1; type: ADME, cell-based, Sus scrofa
# [9] = Volume of distribution at steady state in Sprague-Dawley rat at 1 mg/kg, iv and 3 mg/kg, po; type: ADME, organism-based; conditions: in vivo, read-out: Vdss
# [10] = Fraction unbound in human plasma; type: ADME, cell-free
# Rattus norvegicus [11] = experiment: Immunomodulatory activity in Lewis rat assessed as peripheral lymphocyte reduction at 0.3 mg/kg, po after 24 hrs relative to control; type: functional; parameters: scale not given: the % may be the effect or the level left
# [12] = target: T3, Voltage-gated inwardly rectifying potassium channel KCNH2 (Homo sapiens, UniProt Q12809); experiment: Binding affinity to human Erg
# T3 sequence (Q12809 whole entry): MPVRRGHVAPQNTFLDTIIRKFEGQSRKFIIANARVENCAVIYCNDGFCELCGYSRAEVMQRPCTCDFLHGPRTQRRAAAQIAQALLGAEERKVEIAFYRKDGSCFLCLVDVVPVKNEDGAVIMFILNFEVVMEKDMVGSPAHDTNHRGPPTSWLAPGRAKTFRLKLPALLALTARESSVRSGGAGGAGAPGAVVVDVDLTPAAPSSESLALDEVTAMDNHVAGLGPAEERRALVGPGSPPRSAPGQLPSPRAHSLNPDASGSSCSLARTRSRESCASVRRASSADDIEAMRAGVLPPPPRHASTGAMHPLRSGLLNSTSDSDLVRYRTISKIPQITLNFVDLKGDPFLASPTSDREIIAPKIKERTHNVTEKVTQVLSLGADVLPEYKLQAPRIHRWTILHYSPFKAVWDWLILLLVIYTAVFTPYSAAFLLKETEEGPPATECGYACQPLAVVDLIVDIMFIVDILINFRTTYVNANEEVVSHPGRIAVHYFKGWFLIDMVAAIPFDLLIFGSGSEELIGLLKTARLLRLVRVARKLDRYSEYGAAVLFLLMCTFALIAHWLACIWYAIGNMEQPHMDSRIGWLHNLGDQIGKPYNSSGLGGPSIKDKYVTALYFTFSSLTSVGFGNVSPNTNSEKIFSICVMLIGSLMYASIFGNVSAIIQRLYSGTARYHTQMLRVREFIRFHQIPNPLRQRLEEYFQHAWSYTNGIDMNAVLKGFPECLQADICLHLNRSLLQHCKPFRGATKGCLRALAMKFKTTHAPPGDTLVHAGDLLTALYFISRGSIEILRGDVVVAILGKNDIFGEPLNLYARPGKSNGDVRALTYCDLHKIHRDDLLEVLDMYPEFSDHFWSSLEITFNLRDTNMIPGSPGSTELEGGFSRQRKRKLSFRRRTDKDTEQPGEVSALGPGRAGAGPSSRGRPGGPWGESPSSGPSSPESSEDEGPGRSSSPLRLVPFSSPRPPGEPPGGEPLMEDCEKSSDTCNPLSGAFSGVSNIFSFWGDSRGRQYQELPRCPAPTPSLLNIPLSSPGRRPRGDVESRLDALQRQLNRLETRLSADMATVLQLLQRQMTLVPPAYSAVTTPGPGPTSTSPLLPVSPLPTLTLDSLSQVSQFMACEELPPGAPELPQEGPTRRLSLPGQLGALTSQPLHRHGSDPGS
# Rattus norvegicus [13] = experiment: Immunomodulatory activity in Lewis rat assessed as peripheral lymphocyte reduction at 0.1 mg/kg, po after 24 hrs relative to control; type: functional
# Rattus norvegicus [14] = experiment: Immunomodulatory activity in Lewis rat assessed as peripheral lymphocyte reduction at 1 mg/kg, po after 24 hrs relative to control; type: functional; parameters: scale not given: the % may be the effect or the level left
# rat MDR1 [15] = experiment: Permeability from apical to basolateral side in pig LLC-PK1 cells expressing rat MDR1; type: ADME, cell-based, Sus scrofa; conditions: read-out: permeability
# [16] = Mean residence time in Sprague-Dawley rat at 1 mg/kg, iv and 3 mg/kg, po; type: ADME, organism-based; conditions: in vivo
# [17] = Solubility of the compound in simulated intestinal fluid; type: physicochemical; conditions: simulated gi fluid
# Cytochrome P450 3A4 [18] = target: T4, Cytochrome P450 3A4 (Homo sapiens, UniProt P08684); experiment: Inhibition of CYP3A4; type: ADME
# T4 sequence (P08684 whole entry): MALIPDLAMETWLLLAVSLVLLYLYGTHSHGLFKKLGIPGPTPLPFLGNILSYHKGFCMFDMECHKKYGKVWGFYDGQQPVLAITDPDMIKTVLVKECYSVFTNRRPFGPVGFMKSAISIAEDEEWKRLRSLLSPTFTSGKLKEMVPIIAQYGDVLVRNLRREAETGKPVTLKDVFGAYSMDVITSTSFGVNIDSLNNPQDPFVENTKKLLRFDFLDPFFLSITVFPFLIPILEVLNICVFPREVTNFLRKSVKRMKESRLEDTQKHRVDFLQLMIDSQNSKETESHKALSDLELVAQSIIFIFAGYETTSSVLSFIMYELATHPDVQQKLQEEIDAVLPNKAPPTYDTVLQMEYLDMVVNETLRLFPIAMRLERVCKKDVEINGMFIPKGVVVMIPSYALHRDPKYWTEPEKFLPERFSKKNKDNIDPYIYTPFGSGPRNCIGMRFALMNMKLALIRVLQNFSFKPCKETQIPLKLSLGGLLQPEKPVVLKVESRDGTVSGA
# Cytochrome P450 2D6 [19] = target: T5, Cytochrome P450 2D6 (Homo sapiens, UniProt P10635); experiment: Induction of CYP2D6; type: ADME
# T5 sequence (P10635 whole entry): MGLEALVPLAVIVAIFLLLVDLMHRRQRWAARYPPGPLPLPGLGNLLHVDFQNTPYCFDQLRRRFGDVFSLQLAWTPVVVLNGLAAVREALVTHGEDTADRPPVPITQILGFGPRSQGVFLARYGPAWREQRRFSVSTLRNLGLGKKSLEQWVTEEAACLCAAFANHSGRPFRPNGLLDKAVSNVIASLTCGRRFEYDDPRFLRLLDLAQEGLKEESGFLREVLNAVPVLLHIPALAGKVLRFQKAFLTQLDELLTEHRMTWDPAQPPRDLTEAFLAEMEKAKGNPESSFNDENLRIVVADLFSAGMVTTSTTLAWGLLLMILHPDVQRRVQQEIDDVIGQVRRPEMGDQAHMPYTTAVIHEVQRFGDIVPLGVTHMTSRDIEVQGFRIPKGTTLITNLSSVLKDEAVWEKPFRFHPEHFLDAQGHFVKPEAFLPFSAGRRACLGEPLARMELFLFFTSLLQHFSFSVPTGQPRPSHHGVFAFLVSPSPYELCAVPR
# Cytochrome P450 2D6 [20] = target: T5, Cytochrome P450 2D6; experiment: Inhibition of CYP2D6; type: ADME
# [21] = Solubility of the compound in 0.01 N HCl; type: physicochemical; conditions: buffer
# [22] = target: T3, Voltage-gated inwardly rectifying potassium channel KCNH2; experiment: Inhibition of human Erg by electrophysiology assay
# [23] = Fraction unbound in rat plasma; type: ADME, cell-free
# [24] = Oral bioavailability in Sprague-Dawley rat at 3 mg/kg; type: ADME, organism-based; conditions: in vivo
# Cytochrome P450 3A4 [25] = target: T4, Cytochrome P450 3A4; experiment: Induction of CYP3A4; type: ADME
# [26] = Solubility of the compound in phosphate buffer saline; type: physicochemical
# Plasma [27] = experiment: Plasma concentration in Lewis rat at 0.1 mg/kg, po; type: ADME, organism-based; parameters: dose 0.1 mg/kg, route oral; conditions: in vivo
smiles,measurement,setting,value
O=C(O)c1ccc(-c2nc3ccc(C4(c5ccccc5)CC4)nc3s2)c(F)c1,pEC50,[1],5.55
same,pEC50,[2],< 4.60
same,Efficacy,[3],105%
Fc1ccccc1-c1nc2ccc(C3(c4ccccc4)CC3)nc2s1,pEC50,[1],7.35
same,pEC50,[2],< 4.60
same,Efficacy,[3],98%
O=C(O)CCNc1ccc(-c2nc3ccc(C4(c5ccccc5)CC4)nc3s2)c(F)c1,pEC50,[1],7.38
same,pEC50,[2],< 5.60
same,Efficacy,[3],94%
O=C(O)CCc1ccc(-c2nc3ccc(C4(c5ccccc5)CC4)nc3s2)c(F)c1,pEC50,[2],< 4.60
same,Efficacy,[3],81%
NCc1ccc(-c2nc3ccc(C4(c5ccccc5)CC4)nc3s2)c(F)c1,pEC50,[1],7.82
same,pEC50,[2],< 5.60
same,Efficacy,[3],113%
O=C(O)CCCNc1ccc(-c2nc3ccc(C4(c5ccccc5)CC4)nc3s2)c(F)c1,pEC50,[1],7.44
same,pEC50,[2],5.15
same,Efficacy,[3],113%
same,Efficacy,[4],18%
O=C(O)CCCc1ccc(-c2nc3ccc(C4(c5ccccc5)CC4)nc3s2)c(F)c1,pEC50,[1],7.21
same,pEC50,[2],< 4.60
same,Efficacy,[3],100%
N[C@@H](CC(=O)O)C(=O)Nc1ccc(-c2nc3ccc(C4(c5ccccc5)CC4)nc3s2)c(F)c1,pEC50,[1],9.30
same,Activity,Rattus norvegicus [5],0%
same,pEC50,[2],5.95
same,Efficacy,[3],134%
same,Cp,Plasma [6],1 ng/mL
same,Efficacy,[4],35%
N[C@@H](CC(=O)Nc1ccc(-c2nc3ccc(C4(c5ccccc5)CC4)nc3s2)c(F)c1)C(=O)O,pEC50,[1],8.70
same,Activity,Rattus norvegicus [5],4%
same,pEC50,[2],< 5.60
same,Efficacy,[3],102%
same,Cp,Plasma [6],8 ng/mL
N[C@H](CC(=O)O)C(=O)Nc1ccc(-c2nc3ccc(C4(c5ccccc5)CC4)nc3s2)c(F)c1,Activity,Rattus norvegicus [5],0%
same,pEC50,[2],6.08
same,Efficacy,[3],100%
same,Cp,Plasma [6],2 ng/mL
same,Efficacy,[4],31%
C[C@@](N)(CCc1ccc(-c2nc3ccc(C4(c5ccccc5)CC4)nc3s2)c(F)c1)C(=O)O,pEC50,[1],9.70
same,clearance,[7],6 mL/min/kg
same,efflux ratio,rat MDR1 [8],1.8
same,Activity,Rattus norvegicus [5],71%
same,Vd,[9],4.1 L/kg
same,fraction unbound,[10],0.037
same,Activity,Rattus norvegicus [11],29%
same,Activity,[12],> 30 µM
same,Activity,Rattus norvegicus [13],inactive
same,pEC50,[2],< 5.60
same,Efficacy,[3],114%
same,Activity,Rattus norvegicus [14],56%
same,Papp A→B,rat MDR1 [15],4 ×10⁻⁶ cm/s
same,MRT,[16],11.4 h
same,solubility,[17],108 ng/mL
same,inhibition (INH),Cytochrome P450 3A4 [18],Not Active
same,Activity,Cytochrome P450 2D6 [19],Not Active
same,inhibition (INH),Cytochrome P450 2D6 [20],Not Active
same,solubility,[21],6 ng/mL
same,INH,[22],> 10 µM
same,Cp,Plasma [6],10 ng/mL
same,fraction unbound,[23],0.039
same,bioavailability,[24],16%
same,Activity,Cytochrome P450 3A4 [25],Not Active
same,solubility,[26],< 1 ng/mL
NCCCc1ccc(-c2nc3ccc(C4(c5ccccc5)CC4)nc3s2)c(F)c1,pEC50,[1],8.10
same,pEC50,[2],< 5.60
same,Efficacy,[3],121%
N[C@@H](CCc1ccc(-c2nc3ccc(C4(c5ccccc5)CC4)nc3s2)c(F)c1)C(=O)O,pEC50,[1],9.30
same,Activity,Rattus norvegicus [5],22%
same,pEC50,[2],< 5.60
same,Efficacy,[3],115%
same,Cp,Plasma [6],2 ng/mL
O=C(O)C1CN(Cc2ccc(-c3nc4ccc(C5(c6ccccc6)CC5)nc4s3)c(F)c2)C1,Activity,Rattus norvegicus [5],71%
same,Activity,Rattus norvegicus [13],65%
same,Cp,Plasma [27],10 ng/mL
same,Papp A→B,rat MDR1 [15],14.6 ×10⁻⁶ cm/s
same,solubility,[17],65 ng/mL
same,solubility,[21],3 ng/mL
same,Cp,Plasma [6],116 ng/mL
same,Efficacy,[4],26%
same,solubility,[26],7 ng/mL
N[C@H](CC(=O)Nc1ccc(-c2nc3ccc(C4(c5ccccc5)CC4)nc3s2)c(F)c1)C(=O)O,pEC50,[1],8.70
same,Activity,Rattus norvegicus [5],0%
same,pEC50,[2],< 5.60
same,Efficacy,[3],110%
same,Cp,Plasma [6],4 ng/mL
O=C(O)CCNCc1ccc(-c2nc3ccc(C4(c5ccccc5)CC4)nc3s2)c(F)c1,pEC50,[1],8.52
same,Activity,Rattus norvegicus [5],27%
same,pEC50,[2],< 4.60
same,Efficacy,[3],96%
same,Cp,Plasma [6],12 ng/mL
O=C(O)CNCc1ccc(-c2nc3ccc(C4(c5ccccc5)CC4)nc3s2)c(F)c1,pEC50,[1],8.52
same,Activity,Rattus norvegicus [5],37%
same,pEC50,[2],5.81
same,Efficacy,[3],103%
same,Cp,Plasma [6],7 ng/mL
same,Efficacy,[4],17%
C[C@](N)(CCc1ccc(-c2nc3ccc(C4(c5ccccc5)CC4)nc3s2)c(F)c1)C(=O)O,pEC50,[1],8.52
same,Activity,Rattus norvegicus [5],15%
same,pEC50,[2],< 5.60
same,Efficacy,[3],93%
same,Cp,Plasma [6],6 ng/mL
CN(CCC(=O)O)Cc1ccc(-c2nc3ccc(C4(c5ccccc5)CC4)nc3s2)c(F)c1,pEC50,[1],6.71
same,pEC50,[2],< 4.60
same,Efficacy,[3],153%
NCCc1ccc(-c2nc3ccc(C4(c5ccccc5)CC4)nc3s2)c(F)c1,pEC50,[1],6.32
same,pEC50,[2],< 4.60
same,Efficacy,[3],155%
O=C(O)CCCNCc1ccc(-c2nc3ccc(C4(c5ccccc5)CC4)nc3s2)c(F)c1,pEC50,[1],6.75
same,pEC50,[2],< 5.60
same,Efficacy,[3],128%
O=C(O)CCCCc1ccc(-c2nc3ccc(C4(c5ccccc5)CC4)nc3s2)c(F)c1,pEC50,[1],5.62
same,pEC50,[2],< 4.60
same,Efficacy,[3],103%
O=C(O)CNCCc1ccc(-c2nc3ccc(C4(c5ccccc5)CC4)nc3s2)c(F)c1,pEC50,[1],8.70
same,Activity,Rattus norvegicus [5],15%
same,pEC50,[2],5.84
same,Efficacy,[3],102%
same,Cp,Plasma [6],1 ng/mL
same,Efficacy,[4],11%
Nc1ccc(-c2nc3ccc(C4(c5ccccc5)CC4)nc3s2)c(F)c1,pEC50,[1],6.91
same,pEC50,[2],< 4.60
same,Efficacy,[3],92%
O=C(O)CCC(=O)Nc1ccc(-c2nc3ccc(C4(c5ccccc5)CC4)nc3s2)c(F)c1,pEC50,[1],7.72
same,pEC50,[2],5.25
same,Efficacy,[3],80%
same,Efficacy,[4],39%
N[C@H](CCc1ccc(-c2nc3ccc(C4(c5ccccc5)CC4)nc3s2)c(F)c1)C(=O)O,pEC50,[1],9.52
same,Activity,Rattus norvegicus [5],55%
same,pEC50,[2],< 5.60
same,Efficacy,[3],128%
same,Cp,Plasma [6],5 ng/mL
